# Source: patent US20080058642A1, “METHOD FOR DETECTING CORONARY ENDOTHELIAL DYSFUNCTION AND EARLY ATHEROSCLEROSIS” (BOARD OF REGENTS OF THE UNIVERSITY OF TEXAS SYSTEM, priority 2006, published 2008)
# Key:
# [1] = molecular target: T1, endothelin 1A receptor (Sus scrofa, UniProt Q29010); conditions: porcine saphenous vein-carotid artery interposition grafts; cited from earlier work
# T1 construct: host or cells: in vivo, porcine vein grafts
# T1 sequence (Q29010 21-427): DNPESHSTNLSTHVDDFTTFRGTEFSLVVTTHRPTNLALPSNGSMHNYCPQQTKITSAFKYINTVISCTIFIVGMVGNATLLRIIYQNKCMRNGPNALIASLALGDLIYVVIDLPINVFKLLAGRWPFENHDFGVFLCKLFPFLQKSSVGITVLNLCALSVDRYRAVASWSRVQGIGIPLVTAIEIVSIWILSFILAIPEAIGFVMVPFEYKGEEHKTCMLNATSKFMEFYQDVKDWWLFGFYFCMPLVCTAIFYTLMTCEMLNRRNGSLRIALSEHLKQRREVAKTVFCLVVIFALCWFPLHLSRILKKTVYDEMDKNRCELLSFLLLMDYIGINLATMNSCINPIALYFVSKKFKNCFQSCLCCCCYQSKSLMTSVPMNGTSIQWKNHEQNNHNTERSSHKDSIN
# [2] = test system: healthy adult hound dogs (left circumflex coronary artery, LCx, territory); assay: Endothelin-induced myocardial perfusion defects by 82Rb PET imaging in dogs; format: in vivo, dog; conditions: for severity of perfusion defect after intracoronary infusion: intracoronary into LCx for 10 min, L-NMMA 100-400 μg/kg/min in five dogs vs ET-1; for AD i.c. pre-ET: LCx 82Rb uptake as % of baseline: intracoronary adenosine before ET-1; for AD i.c. post-ET: LCx 82Rb uptake as % of baseline: intracoronary adenosine after ET-1; for AD i.v.: LCx 82Rb uptake as % of baseline: intravenous adenosine 0.142 mg/kg/min after ET-1
# Procedure: Experimental Preparation. The experimental protocol was approved by the Animal Welfare Committee of the University of Texas Health Sciences Center at Houston. After an overnight fast, healthy adult hound dogs (n=14) of both sexes, 21-35 kg, were anesthetized with 30 mg/kg pentobarbital sodium (Nembutal) and underwent endotracheal intubation and mechanical ventilation with adequate anesthesia maintained by small supplemental doses during the experiment. Arterial blood gases were maintained within physiological range by adjusting the mechanical ventilator with supplemental oxygen, core body temperature was maintained at 37° C. with a homeothermic blanket, and stable body position was maintained throughout the duration of the imaging protocol by using a specially designed portable cradle for both coronary arteriography and PET imaging without moving the dog strapped to the portable cradle.
# Arterial access was obtained via the right femoral artery by standard Seldinger technique with an arterial micropuncture kit (Cook, Bloomington, Ind.) with a 6-F arterial sheath. All animals received 100 IU/kg of initial heparin bolus, with 50 IU/kg every hour for the duration of the experiment. A 6-F standard JL3 VistaBrite coronary guide catheter (Cordis-Cardiology, Miami Lakes, Fla.) was positioned under fluoroscopic guidance into the left main coronary artery ostium.
# After a stable position for the guide catheter was obtained, a 0.014-in.-diameter Hi-Torque Whisper guide wire (Guidant, Indianapolis, Ind.) was placed in the left circumflex coronary artery (LCx). Over the coronary wire, a 2.3-F, 150-cm-long, 0.042-in.-minimal diameter Rapidtransit infusion catheter (Cordis-Cardiology) was positioned in the LCx, with the tip in the midsegment of the LCx artery proximal to the takeoff of the first large obtuse marginal branch. The guide wire was removed, the guide catheter was withdrawn into the aortic root, and the small catheter was left in place in the mid-LCx.
# Experimental Protocol. Contrast angiograms were obtained to document the LCx as the dominant coronary artery and the small catheter position in the mid-LCx. With contrast solution diluted 50% with normal saline, different injection rates were tested to determine the rate at which back flow occurred into the proximal segment of the coronary artery. […] Dogs were then moved into the PET scanner without changing position on the special cradle, and a repeat subselective angiogram was performed under fluoroscopy on the PET imaging table to ensure that the small intracoronary infusion catheter positioned in the mid-LCx had not changed during transportation. PET imaging was carried out with the University of Texas-designed Posicam BGO multislice tomograph HZL/mPower (Positron, Houston) as previously described (e.g., Halcox et al., Circulation 106:653-658, 2002), with a reconstructed resolution of 10-mm full-width half-maximum. Images were acquired in two-dimensional mode with extended septa to minimize scattered counts with random coincidences corrected from the singles count rate.
# On the basis of a 5-min positioning transmission scan, dogs were precisely positioned in the PET scanner and laser guides aligned to external body markers were used to check correct position for every image acquisition. With a rotating rod source containing 4-5 mCi of ^68Ge, transmission images to correct for photon attenuation contained about 70-90 million counts. Emission images obtained after intravenous injection of […]-1,110 MBq (25-30 mCi) of generator-produced rubidium-82 (^82Rb) contained about 20-30 million counts. The protocol used the following imaging sequence as illustrated in FIG. 7.
# Step 1. Immediately after completion of a resting perfusion image with intravenous ^82Rb, 3 mg/ml adenosine (Fujisawa Healthcare, Deerfield, Ill.) was infused subselectively into the LCx for 4 min at 2 ml/min. […]
# [3] = test system: myocardial perfusion; assay: Rest-dipyridamole myocardial perfusion PET with Markovian homogeneity analysis; format: in vivo, human
# From the text: Study Patients. The population for this study consists of 1,034 consecutive subjects undergoing diagnostic, rest-dipyridamole, myocardial perfusion PET at The Weatherhead PET Center For Preventing and Reversing Atherosclerosis of the University of Texas Medical School—Houston. All subjects signed informed consent approved by the Committee for the Protection of Human Subjects of the University of Texas Health Science Center. A complete medical history was obtained on all patients undergoing diagnostic cardiac PET for assessment or follow-up of known CAD, for second opinions on revascularization procedures, for prior positive stress tests, for coronary calcification by CT, for chest pain or other symptoms, for screening, or for risk factors. A history of risk factors was obtained for age, sex, diabetes, hypertension, high cholesterol, family history of vascular disease, excess weight, lack of exercise, and past or present smoking, that were counted as positive even if treated, as with hypertensive or lipid-lowering medications.
# PET. Patients were instructed to fast for 4 h and abstain from caffeine, theophylline, and cigarettes for 24 h before study. PET was performed using the University of Texas designed, Positron Posicam Auricle, bismuth germanate, 2-dimensional (2D) multislice tomograph with a reconstructed resolution of 10-mm full width at half maximum. Using a rotating rod source containing 148-185 MBq (4-5 mCi) of ^68Ge, transmission images to correct for photon attenuation contained approximately 40-60 million counts. Emission images obtained after intravenous injection of 925-1,850 MBq (25-50 mCi) of generator-produced ^82Rb contained 20-50 million counts depending on the age of the generator and size of the patient. After resting ^82Rb data acquisition, dipyridamole (0.142 mg/kg/min) was infused for 4 min. At 4 min after completion of the dipyridamole infusion, the same dose of ^82Rb was given intravenously.
# Automated Quantitative Analysis of PET Images. […]
# [4] = intracoronary ET-1 1.5-3.5 ng/kg/min for 10 min, repeated doses in six dogs
smiles,measurement,setting,value
"Cc1cc(C)nc(O[C@H](C(=O)O)C(C)(c2ccccc2)c2ccccc2)n1 [BSF 302146, [+]-[S]-2-[4,6-dimethyl-pyridimin-2-yloxy]-3,3-diphenyl-butanoic acid]",inhibition of neointimal and medial thickening,[1],potent inhibitor
"CC[C@H](C)[C@H](NC(=O)[C@H](CC(=O)O)NC(=O)[C@H](CC(C)C)NC(=O)[C@H](Cc1cnc[nH]1)NC(=O)[C@@H]1CSSC[C@H](N)C(=O)N[C@@H](CO)C(=O)N[C@H]2CSSC[C@H](NC(=O)[C@H](CCC(=O)O)NC(=O)[C@H](CCCCN)NC(=O)[C@H](CC(=O)O)NC(=O)[C@H](CCSC)NC(=O)[C@H](CC(C)C)NC(=O)[C@H](CO)NC(=O)[C@H](CO)NC2=O)C(=O)N[C@@H](C(C)C)C(=O)N[C@@H](Cc2ccc(O)cc2)C(=O)N[C@@H](Cc2ccccc2)C(=O)N1)C(=O)N[C@H](C(=O)N[C@@H](Cc1c[nH]c2ccccc12)C(=O)O)[C@@H](C)CC [ET-1, endothelin-1]",ΔET − Baseline (severity of ET-induced defect),[2]; Group 1,−12.7%
same,ET: LCx 82Rb uptake as % of baseline,"[2]; Group 1, after intracoronary ET-1, total dose 44.3 ng",89.3%
same,ET: LCx 82Rb uptake as % of baseline,"[2]; Group 1, after intracoronary ET-1, total dose 44.3 ng, listed as ET",89.3 ± 7.3%
same,ΔET − Baseline (severity of ET-induced defect),"[2]; Group 1, listed as ET",−12.7 ± 6.7%
same,ΔET − Baseline (severity of ET-induced defect),[2]; Group 2,−11.1%
same,ET: LCx 82Rb uptake as % of baseline,"[2]; Group 2, after intracoronary ET-1, total dose 67.5 ng",90.2%
same,ET: LCx 82Rb uptake as % of baseline,"[2]; Group 2, after intracoronary ET-1, total dose 67.5 ng, listed as ET",90.2 ± 8.1%
same,ΔET − Baseline (severity of ET-induced defect),"[2]; Group 2, listed as ET",−11.1 ± 11.9%
same,death because of ET-1 administration,[2]; [4],no animal died
same,tachyarrhythmia,[2]; [4],No tachyarrhythmia developed
same,severity of perfusion defect after intracoronary infusion,[2],−10.13%
same,duration of perfusion defect after intracoronary ET-1 infusion,"[2]; pilot dose-finding, three dogs, in several instances",up to 5 h
same,time at which perfusion defect was first observed,"[2]; pilot dose-finding, end of initial intracoronary ET-1 infusion",≥ 10 min
"CNC(=N)NCCC[C@H](N)C(=O)O [L-NMMA, N^G-monomethyl-L-arginine]",severity of perfusion defect after intracoronary infusion,[2],−2.48%
Nc1ncnc2c1ncn2[C@@H]1O[C@H](CO)[C@@H](O)[C@H]1O [adenosine],ΔAD i.c − ET (percent change in LCx uptake),[2]; Group 1,8.7%
same,ΔAD i.v. − ET (change of defect after intravenous adenosine),[2]; Group 1,+4.1%
same,AD i.c. pre-ET: LCx 82Rb uptake as % of baseline,"[2]; Group 1 (n = 8, defect improved after i.v. adenosine)",102%
same,AD i.c. pre-ET: LCx 82Rb uptake as % of baseline,"[2]; Group 1 (n = 8, defect improved after i.v. adenosine), listed as AD",102.0 ± 5.5%
same,AD i.c. post-ET: LCx 82Rb uptake as % of baseline,[2]; Group 1,98.7%
same,AD i.c. post-ET: LCx 82Rb uptake as % of baseline,"[2]; Group 1, listed as AD",98.7 ± 5.5%
same,AD i.v.: LCx 82Rb uptake as % of baseline,[2]; Group 1,93.4%
same,AD i.v.: LCx 82Rb uptake as % of baseline,"[2]; Group 1, listed as AD",93.4 ± 6.0%
same,ΔAD i.c − ET (percent change in LCx uptake),"[2]; Group 1, listed as AD",8.7 ± 4.3%
same,ΔAD i.v. − ET (change of defect after intravenous adenosine),"[2]; Group 1, listed as AD",4.1 ± 2.0%
same,ΔAD i.c − ET (percent change in LCx uptake),[2]; Group 2,10.5%
same,ΔAD i.v. − ET (change of defect after intravenous adenosine),[2]; Group 2,−12.5%
same,AD i.c. pre-ET: LCx 82Rb uptake as % of baseline,"[2]; Group 2 (n = 15, defect not improved or worse after i.v. adenosine)",101.3%
same,AD i.c. pre-ET: LCx 82Rb uptake as % of baseline,"[2]; Group 2 (n = 15, defect not improved or worse after i.v. adenosine), listed as AD",101.3 ± 5.2%
same,AD i.c. post-ET: LCx 82Rb uptake as % of baseline,[2]; Group 2,100.5%
same,AD i.c. post-ET: LCx 82Rb uptake as % of baseline,"[2]; Group 2, listed as AD",100.5 ± 4.3%
same,AD i.v.: LCx 82Rb uptake as % of baseline,[2]; Group 2,77.7%
same,AD i.v.: LCx 82Rb uptake as % of baseline,"[2]; Group 2, listed as AD",77.7 ± 14.5%
same,ΔAD i.c − ET (percent change in LCx uptake),"[2]; Group 2, listed as AD",10.5 ± 8.5%
same,ΔAD i.v. − ET (change of defect after intravenous adenosine),"[2]; Group 2, listed as AD",−12.5 ± 9.2%
same,effect of intracoronary adenosine on ET-1-induced resting perfusion defects,[2]; all experiments,normalized
same,effect of intravenous adenosine on vasoconstrictor effect of ET-1,"[2]; doses comparable to clinical practice, all 23 protocol sequences",only partially counteracted
same,visual change of ET-1-induced perfusion defect after intravenous adenosine,[2]; group 1 (n=8),improved
same,visual change of ET-1-induced perfusion defect after intravenous adenosine,[2]; group 2 (n=15),visually not improved or relatively worse
OCCN(CCO)c1nc(N2CCCCC2)c2nc(N(CCO)CCO)nc(N3CCCCC3)c2n1 [dipyridamole],lowest mean average quadrant activity on the dipyridamole scan,[3]; patient with severe stress-induced perfusion defect,63 % of maximum
same,homogeneity index by Markovian analysis after dipyridamole,"[3]; patient with severe stress-induced perfusion defect, 0.34 at rest",0.49
same,homogeneity index by Markovian analysis after dipyridamole,"[3]; young healthy volunteer without risk factors, 0.80 at rest",0.83
